# Reference: US7595401B2, “Therapeutic compounds and their use in cancer” (Myriad Pharmaceuticals, Inc., priority 2006, dated 2009)
# pIC50: −log10 of the molar value.
# Test system: purified human Hsp90
# Assay: Binding Assay: fluorescence polarization with BODIPY-labeled geldanamycin
# Conditions: 5 μM compound, BODIPY-GM 10 nM, Hsp90 30 nM
# Procedure, shortened: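 Fluorescence polarization competition with BODIPY-geldanamycin (10 nM final) and human Hsp90 (30 nM final) in HEPES-KOH pH 7.3 buffer with molybdate, NP-40, DTT; 2% DMSO, overnight at room temperature. Read 485/530 nm; percent inhibition from mP normalized to DMSO controls, fluorescent-compound points excluded.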
row,% Inhibition at 5 μM Compound Concentration,SMILES
1,1.0%,"CC(C)(C)OC(=O)N1CCC[C@H]1C(=O)N1CCC(CCn2cnc(N)c3nc(Sc4cc5c(cc4Br)OCO5)nc2-3)CC1 [Example 731, tert-Butyl(2S)-2-{[4-(2-{6-amino-8-[(6-bromo-1,3-benzodioxol-5-yl)thio]-3H-purin-3-yl}ethyl)piperidin-1-yl]carbonyl}pyrrolidine-1-carboxylate]"
2,>10%,"Nc1ncn(CCc2cccc(I)c2)c2nc(Sc3cc4c(cc3Br)OCO4)nc1-2 [Example 154, 8-(6-Bromo-benzo[1,3]dioxol-5-ylsulfanyl)-3-[2-(3-iodo-phenyl)-ethyl]-3H-purin-6-ylamine]"
3,37%,"COc1ccc(OC)c(Sc2nc3c(N)ncnc3n2CCC2CCCCC2)c1 [Example 169, 9-(2-Cyclohexyl-ethyl)-8-(2,5-dimethoxyphenyl-sulfanyl)-9H-purin-6-ylamine]"
4,16%,"COc1ccc(OC)c(Sc2nc3c(N)ncn(CCc4ccccn4)c-3n2)c1 [Example 136, 8-(2,5-Dimethoxy-phenylsulfanyl)-3-(2-pyridin-2-yl-ethyl)-3H-purin-6-ylamine]"
5,69%,"COc1ccc(OC)c(Sc2nc3c(N)ncnc3n2CCc2ccccc2C)c1 [Example 69, 8-(2,5-Dimethoxy-phenylsulfanyl)-9-(2-o-tolyl-ethyl)-9H-purin-6-ylamine]"
6,46%,"Nc1ncn(CCc2ccccc2[N+](=O)[O-])c2nc(Sc3cc4c(cc3Br)OCO4)nc1-2 [Example 208, 8-(6-bromo-benzo[1,3]dioxol-5-ylsulfanyl)-3-[2-(2-nitro-phenyl)-ethyl]-3H-purin-6-ylamine]"
7,11%,"Nc1ncn(CCC2CCN(C(=O)OCc3ccccc3)CC2)c2nc(Sc3cc4c(cc3Br)OCO4)nc1-2 [Example 410, Benzyl 4-(2-{6-amino-8-[(6-bromo-1,3-benzodioxol-5-yl)thio]-3H-purin-3-yl}ethyl)piperidine-1-carboxylate]"
8,8%,"CCOc1ccc(OCC)c(Sc2nc3c(N)ncn(CCc4ccccc4)c-3n2)c1 [Example 190, 8-(2,5-diethoxy-phenylsulfanyl)-3-phenethyl-3H-purin-6-ylamine]"
9,21.0%,"COc1ccc(C)cc1Sc1nc2c(N)ncn(CCc3ccccc3)c-2n1 [Example 315, 8-[(2-Methoxy-5-methylphenyl)thio]-3-(2-phenylethyl)-3H-purin-6-amine]"
10,49%,"CS(=O)(=O)NC(CCn1cnc(N)c2nc(Sc3cc4c(cc3Br)OCO4)nc1-2)C1CC1 (stereo not drawn) [Example 675, N-(3-{6-Amino-8-[(6-bromo-1,3-benzodioxol-5-yl)thio]-3H-purin-3-yl}-1-cyclopropylpropyl)methanesulfonamide]"
11,4%,"CC(C)N1CCCCC1CCn1cnc(N)c2nc(Sc3cc4c(cc3Br)OCO4)nc1-2 (stereo not drawn) [Example 446, 8-[(6-Bromo-1,3-benzodioxol-5-yl)thio]-3-[2-(1-isopropylpiperidin-2-yl)ethyl]-3H-purin-6-amine]"
12,1%,"Nc1ncn(CCC2CCCCN2S(=O)(=O)C(F)(F)F)c2nc(Sc3cc4c(cc3Br)OCO4)nc1-2 (stereo not drawn) [Example 397, 8-[(6-Bromo-1,3-benzodioxol-5-yl)thio]-3-(2-{1-[(trifluoromethyl)sulfonyl]piperidin 2-yl}ethyl)-3H-purin-6-amine]"
13,3.0%,"COc1ccc(F)cc1Sc1nc2c(N)ncn(CCc3ccccc3)c-2n1 [Example 313, 8-[(5-Fluoro-2-methoxyphenyl)thio]-3-(2-phenylethyl)-3H-purin-6-amine]"

# Same assay, conditions: BODIPY-GM 10 nM, Hsp90 30 nM
row,pIC50,SMILES
1,< 5.30,"COC(=O)c1ccnc(Sc2nc3c(N)ncnc3n2CCC2CCN(C=O)CC2)c1 [Example 542, Methyl 2-({6-amino-9-[2-(1-formylpiperidin-4-yl)ethyl]-9 H-purin-8-yl}thio)isonicotinate]"
2,6.52,"CC(C)(C)OC(=O)N1CC[C@H](CCn2c(Sc3cc4c(cc3Br)OCO4)nc3c(N)ncnc32)C1 [Example 418, tert-Butyl (3R)-3-(2-{6-amino-8-[(6-bromo-1,3-benzodioxol-5-yl)thio]-9H-purin-9-yl}ethyl)pyrrolidine-1-carboxylate]"
3,6.33,"COc1ccc(OC)c(Sc2nc3c(N)ncnc3n2CCC2CCCCC2)c1 [Example 169, 9-(2-Cyclohexyl-ethyl)-8-(2,5-dimethoxyphenyl-sulfanyl)-9H-purin-6-ylamine]"
4,6.44,"COc1ccc(OC)c(Sc2nc3c(N)ncnc3n2CCc2ccccc2OC)c1 [Example 85, 8-(2,5-Dimethoxy-phenylsulfanyl)-9-[2-(2-methoxy-phenyl)-ethyl]-9H-purin-6-ylamine]"
5,6.66,"Cc1ccc(C)c(CCn2c(Sc3cc4c(cc3Br)OCO4)nc3c(N)ncnc32)c1 [Example 124, 8-(6-Bromo-benzo[1,3]dioxol-5-ylsulfanyl)-9-[2-(2,5-dimethyl-phenyl)-ethyl]-9H-purin-6-ylamine]"
6,< 5.00,"COc1cc(Sc2nc3c(N)ncn(CCc4ccccc4)c-3n2)cc(OC)c1OC [Example 46, 3-phenethyl-8-(3,4,5-trimethoxy-phenylsulfanyl)-3H-purin-6-ylamine]"
7,< 5.52,"CCOC(=O)[C@@H]1C[C@H](CCn2c(Sc3cc4c(cc3Br)OCO4)nc3c(N)ncnc32)CCN1C(=O)OC(C)(C)C (relative stereo) [Example 422, 1-tert-Butyl 2-ethyl cis-4-(2-{6-amino-8-[(6-bromo-1,3-benzodioxol-5-yl)thio]-9H-purin-9-yl}ethyl)piperidine-1,2-dicarboxylate]"
8,6.60,"COc1ccc(OC)c(Sc2nc3c(N)ncnc3n2CCc2ccccc2C)c1 [Example 69, 8-(2,5-Dimethoxy-phenylsulfanyl)-9-(2-o-tolyl-ethyl)-9H-purin-6-ylamine]"
9,6.35,"CC(C)(C)OC(=O)CN1CCCCC1CCn1c(Sc2cc3c(cc2Br)OCO3)nc2c(N)ncnc21 (stereo not drawn) [Example 645, tert-Butyl [2-(2-{6-amino-8-[(6-bromo-1,3-benzodioxol-5-yl)thio]-9 H-purin-9-yl}ethyl)piperidin-1-yl]acetate]"
10,6.00,"CC(C)(C)OC(=O)NC(CCn1c(Sc2cc3c(cc2Br)OCO3)nc2c(N)ncnc21)C1CCCC1 (stereo not drawn) [Example 681, {3-[6-Amino-8-(6-bromo-benzo[1,3]dioxol-5-ylsulfanyl)-purin-9-yl]-1-cyclopentyl-propyl}-carbamic acid tert-butyl ester]"
11,4.60,"COc1ccc(OC)c(Sc2nc3c(N)ncn(CCN4CCCCC4)c-3n2)c1 [Example 490, 8-[(2,5-Dimethoxyphenyl)thio]-3-(2-piperidin-1-ylethyl)-3 H-purin-6-amine]"
12,< 5.30,"COc1cc(Sc2nc3c(N)ncnc3n2CCC2CCN(C=O)CC2)cc(OC)c1OC [Example 540, 4-(2-{6-Amino-8-[(3,4,5-trimethoxyphenyl)thio]-9 H-purin-9-yl}ethyl)piperidine-1-carbaldehyde]"
13,< 4.60,"Nc1ncn(CCc2ccccc2[N+](=O)[O-])c2nc(Sc3cc4c(cc3Br)OCO4)nc1-2 [Example 208, 8-(6-bromo-benzo[1,3]dioxol-5-ylsulfanyl)-3-[2-(2-nitro-phenyl)-ethyl]-3H-purin-6-ylamine]"
14,6.74,"COc1cccc(CCn2c(Sc3cc4c(cc3Br)OCO4)nc3c(N)ncnc32)c1 [Example 308, 8-[(6-Bromo-1,3-benzodioxol-5-yl)thio]-9-[2-(3-methoxyphenyl)ethyl]-9H-purin-6-amine]"
15,5.30,"COc1cc(Sc2nc3c(N)ncnc3n2CCC2CCN(C=O)CC2)c2ocnc2c1 [Example 534, 4-(2-{6-Amino-8-[(5-methoxy-1,3-benzoxazol-7-yl)thio]-9 H-purin-9-yl}ethyl)piperidine-1-carbaldehyde]"
16,6.22,"Nc1ncnc2c1nc(Sc1ccc3c(c1)OCO3)n2CCc1ccc(F)cc1 [Example 11, 8-(Benzo[1,3]dioxol-5-ylsulfanyl)-9-[2-(4-fluoro-phenyl)-ethyl]-9H-purin-6-ylamine]"
17,4.57,"Nc1ncn(CCCc2ccccc2)c2nc(Sc3cc4c(cc3Br)OCO4)nc1-2 [Example 44, 8-(6-bromo-benzo[1,3]dioxol-5-ylsulfanyl)-3-(3-phenyl-propyl)-3H-purin-6-ylamine]"
18,5.52,"COc1ccc(CCn2c(Sc3cc(OC)ccc3OC)nc3c(N)ncnc32)cc1 [Example 247, 8-[(2,5-Dimethoxyphenyl)thio]-9-[2-(4-methoxyphenyl)ethyl]-9H-purin-6-amine]"
19,6.31,"CC(C)[C@H](NC(=O)OC(C)(C)C)C(=O)N1CCC(CCn2c(Sc3cc4c(cc3Br)OCO4)nc3c(N)ncnc32)CC1 [Example 713, tert-Butyl((1S)-1-{[4-(2-{6-amino-8-[(6-bromo-1,3-benzodioxol-5-yl)thio]-9H-purin-9-yl}ethyl)piperidin-1-yl]carbonyl}-2-methylpropyl)carbamate]"
20,7.10,"CS(=O)(=O)NC(CCn1c(Sc2cc3c(cc2Br)OCO3)nc2c(N)ncnc21)C1CC1 (stereo not drawn) [Example 674, N-(3-{6-Amino-8-[(6-bromo-1,3-benzodioxol-5-yl)thio]-9H-purin-9-yl}-1-cyclopropylpropyl)methanesulfonamide]"
21,< 5.60,"COc1ccc(OC)c(Sc2nc3c(N)ncnc3n2CCc2ccc(N(C)C)cc2)c1 [Example 185, 8-(2,5-Dimethoxy-phenylsulfanyl)-9-[2-(4-dimethylamino-phenyl)-ethyl]-9H-purin-6-ylamine]"
22,5.89,"COc1ccc(OC)c(Sc2nc3c(N)ncnc3n2CCc2ccccn2)c1 [Example 135, 8-(2,5-Dimethoxy-phenylsulfanyl)-9-(2-pyridin-2-yl-ethyl)-9H-purin-6-ylamine]"
23,< 5.30,"COc1cc(Sc2nc3c(N)ncnc3n2CCC2CCN(C=O)CC2)c(OC)cc1Cl [Example 558, 4-(2-{6-Amino-8-[(4-chloro-2,5-dimethoxyphenyl)thio]-9 H-purin-9-yl}ethyl)piperidine-1-carbaldehyde]"
24,6.41,"Nc1ncnc2c1nc(Sc1cc3c(cc1Br)OCO3)n2CCn1ccnc1 [Example 381, 8-[(6-Bromo-1,3-benzodioxol-5-yl)thio]-9-[2-(1H-imidazol-1-yl)ethyl]-9H-purin-6-amine]"
25,5.54,"Nc1ncnc2c1nc(Sc1cc3c(cc1Br)OCO3)n2CCC1CCCN1C(=O)OCc1ccccc1 (stereo not drawn) [Example 419, Benzyl 2-(2-{6-amino-8-[(6-bromo-1,3-benzodioxol-5-yl)thio]-9H-purin-9-yl}ethyl)pyrrolidine-1-carboxylate]"
26,6.22,CC(C)(C)OC(=O)NC(C)(C)C(=O)N1CCC(CCn2c(Sc3cc4c(cc3Br)OCO4)nc3c(N)ncnc32)CC1 [Example 711]
